According to patent US20090317364A1, “NOVEL COMPOSITIONS FOR PREVENTION AND TREATMENT OF MASTITIS AND METRITIS” (priority 2006, published 2009):

Columns and labels:
[1] = tested on: Staphylococcus. aureus; assay: Lab trials 2a (in vitro) for synergy, components added in wells for diffusion; type: cell-based
From the text: a) Lab trials 2a (in vitro) for synergy.

[2] = tested on: Staphylococcus. aureus; assay: Lab trials 2b (in vitro) for synergy, components added on top of the culture; type: cell-based
From the text: b) Lab trials 2b (in vitro) for synergy.

Substance: Peptidoglycan N-acetylmuramoylhydrolase [Lysozyme]
- Inhibition zone diameter In cm for Staphylococcus. aureus [1]: 1.15 cm
- Inhibition zone In diameter cm for Staphylococcus. aureus [2]: 1.1 cm
